Source: patent US20140171415A1, “FUNNY CURRENT (IF) INHIBITORS FOR USE IN A METHOD OF TREATING AND PREVENTING HEART DISEASE IN CANINE” (Boehringer Ingelheim Vetmedica GmbH, priority 2012, published 2014)

Experiments:
Ih channel = conditions: literature: Neuroscience 1994 (zatebradine), British Journal of Pharmacology 1998 (cilobradine); cited from earlier work
[1] = system: conscious, chronically instrumented dogs; assay: Hemodynamic action in conscious, chronically instrumented dogs; type: in vivo, dog; conditions: 2.5 mg/kg orally
From the text: Hyodynamic Action in Conscious, Chronically Instrumented Dogs:
HR dropped by up to 40% while blood pressure was not affected. Left ventricular end-diastolic pressure rose. This effect on preload may be explained by prolongation of the filling period due to prolongation of diastolic duration. Renal blood flow was maintained and coronary blood flow decreased by up to 40% most likely as a consequence of a drop in myocardial oxygen demand.

anesthetized dogs = assay: Cardiovascular and electrocardiographic effects in anesthetized dogs; type: in vivo, dog
Method: Cardiovascular and Electrocardiographic Effects of Cilobradine (DKAH 3 CL) in Dogs:
The dose of 0.05 mg/kg reduced spontaneous HR by 23% whereas 0.1 mg/kg i.v. reduced HR by 42%. Systolic and diastolic pressure was not affected. The effective refractory times of the sinus and atrioventricular (AV) node increased with 0.05 mg/kg by 31% and 30% respectively.

conscious dogs = assay: Heart rate and arterial blood pressure by telemetry in conscious dogs; type: in vivo, dog
Method: Heart rate (HR) and arterial blood pressure (BP) were measured in conscious dogs using telemetry methodology. They received daily oral doses of 0.3 mg/kg over 5 days. HR measured prior drug administration was reduced from 64.0±6.81 beats per minute (bpm) to 50.5±5.54 bpm on day 5. maximal effect on HR were seen between 1.5 and 3.5 hours post-dosing and HR reached values between 45 and 53 bpm. No effect on arterial BP was seen.

[2] = Lipophilicity profile of the active substance; type: physicochemical; conditions: neutral pH versus acidic pH
From the text: Usually, EC/HPMC films show a sustained release behavior that is independent of pH. […] This, together with the coating applied, may have led to a slower release.

healthy Beagle dogs = assay: Radiotelemetric pharmacodynamic study, repeated once and twice daily oral administration; type: in vivo, dog; conditions: for minimum of the first derivative of the left ventricular pressure against time (LVdP/dtmin) / maximum of the first derivative of the left ventricular pressure against time (LVdP/dtmax) / decrease of heart rate: healthy Beagle dogs; for minimum of the first derivative of the left ventricular pressure against time (LVdP/dtmin): from −2700 mmHg/s; for maximum of the first derivative of the left ventricular pressure against time (LVdP/dtmax): increased from 2700 mmHg/s; for decrease of heart rate: 0.3 mg/kg bodyweight oral, 2 mg/ml oral suspension
Method: A Radiotelemetric Study to Evaluate the Pharmacodynamic Effects of Cilobradine HCl 2 Mg/Ml Oral Suspension after Repeated Once and Twice Daily Oral Administration to Healthy Beagle Dogs
Cilobradine HCl 2 mg/ml oral suspension was given once or twice daily at doses of 0.3 mg/kg bodyweight to conscious, healthy Beagle dogs chronically implanted with a telemetry system. Heart rate, systolic blood pressure, diastolic blood pressure, aortic pressure, left ventricular pressure, electrocardiogram (ECG), and body temperature were recorded. Before each treatment sequence all dogs underwent a 24 hour pre-dosing measurement which served as a baseline (control) measurement. After dosing the dogs were left undisturbed for the duration of the study, which lasted 24 hours, with the exception of the second dosing 10-12 hours after the first treatment.

[3] = 0.3 mg/kg bodyweight once daily and twice daily in comparison to control
[4] = 0.3 mg/kg bodyweight once daily
[5] = 0.3 mg/kg bodyweight twice daily

COc1ccc(CCN(C)CCCN2CCc3cc(OC)c(OC)cc3CC2=O)cc1OC [zatebradine, reference compound]
effect on the Ih channel (Ih channel): can also be blocked

COc1ccc(CCN2CCC[C@H](CN3CCc4cc(OC)c(OC)cc4CC3=O)C2)cc1OC [Cilobradine, (+)-3-[(N-(2-(3,4-dimethoxy-phenyl)ethyl)-piperidin-3-(S)-yl)-methyl]-(7,8-dimethoxy-1,3,4,5-tetrahydro-2H-3-benzazepin-2-on)]
blood pressure [1]: not affected | decrease of coronary blood flow [1]: up to 40% | drop of HR [1]: up to 40% | left ventricular end-diastolic pressure [1]: rose | renal blood flow [1]: maintained | effect on the Ih channel (Ih channel): can also be blocked | increase of effective refractory time of the atrioventricular (AV) node (anesthetized dogs; 0.05 mg/kg i.v.): 30% | increase of effective refractory time of the sinus node (anesthetized dogs; 0.05 mg/kg i.v.): 31% | reduction of spontaneous HR (anesthetized dogs; 0.05 mg/kg i.v.): 23% | reduction of spontaneous HR (anesthetized dogs; 0.1 mg/kg i.v.): 42% | systolic and diastolic pressure (anesthetized dogs; 0.05 or 0.1 mg/kg i.v.): not affected | effect on arterial BP (conscious dogs; daily oral 0.3 mg/kg over 5 days): No effect | HR measured prior drug administration on day 5 (conscious dogs; daily oral doses of 0.3 mg/kg over 5 days, reduced from 64.0±6.81 bpm): 50.5±5.54 bpm

COc1ccc(CCN2CCC[C@H](CN3CCc4cc(OC)c(OC)cc4CC3=O)C2)cc1OC.Cl [cilobradine HCl, (+)-3-[(N-(2-(3,4-dimethoxy-phenyl)ethyl)-piperidin-3-(S)-yl)-methyl]-(7,8-dimethoxy-1,3,4,5-tetrahydro-2H-3-benzazepin-2-on hydrochloride)]
lipophilicity profile [2]: slightly more lipophilic at neutral pH values | inotropic effect (FIG. 1) (healthy Beagle dogs; [3]): positive inotropic effect | lusitropic effect (FIG. 2) (healthy Beagle dogs; [3]): positive lusitropic effect | minimum of the first derivative of the left ventricular pressure against time (LVdP/dtmin) (healthy Beagle dogs; [4]): −3000 mmHg/s | maximum of the first derivative of the left ventricular pressure against time (LVdP/dtmax) (healthy Beagle dogs; [4]): 3000 mmHg/s | decrease of heart rate (healthy Beagle dogs; repeated once daily): approximately 25% | decrease of heart rate (healthy Beagle dogs; repeated twice daily): ~30% | minimum of the first derivative of the left ventricular pressure against time (LVdP/dtmin) (healthy Beagle dogs; [5]): −3550 mmHg/s | maximum of the first derivative of the left ventricular pressure against time (LVdP/dtmax) (healthy Beagle dogs; [5]): 3550 mmHg/s
